Key:
[1] = test system: Groudnuts of the variety Florigiant; experiment: Field test: seed yield and seed quality in groundnuts; assay type: in vivo, Arachis hypogaea; details: for Seeds of the highest quality level: relative, untreated = 100 (38.0 %); for Yield of groundnuts: untreated = 100 (45.4 dt/ha)
Experimental: The tests a) and b) were carried out under conditions like those in practice in 1993 on the field test site of BASF Corporation in Holly Springs, N.C., USA. This location is distinguished by a medium-heavy soil (sandy loam). Groudnuts of the variety Florigiant were used. Treatment was carried out 20, 27 and 34 days after emergence of the plants. For treatment, the soil between the rows was sprayed with an aqueous preparation of the active compound 2.3.1.3. Immediately after application the active compound was washed into the soil by spray irrigation with 20 mm of water. The spray irrigation was also used to wash off active compound which had possibly reached the leaves. Harvesting of the plants at full maturity gave the following results: […]

[2] = test system: Peas (Kleine Rheinländerin); experiment: Peas test 2a: biomass, root nodules, nitrogen assimilation, greenhouse; assay type: in vivo, Pisum sativum; details: 3 weeks after treatment; for Dry matter (shoot + root): control 3.3; for Nodules: control 13; for Total N (total nitrogen in shoot + root): control 78.5
Experimental: (§1) In these tests various types of non-sterile soils were used. The cultivation of the plants was carried out under greenhouse or climatic chamber conditions. The active compounds according to the invention were applied uniformly distributed over the soil surface in an aqueous preparation after the emergence of the respective test plants. The supply of water for the plants was carrried out using the same technique, always paying attention to uniform moistness of the soil. In the case of the cultivation of legumes, defined amounts of species-specific Rhizobia were admixed to the soil. In some cases inoculation was also carried out by seed treatment.
a) Peas (Kleine Rheinländerin) were cultivated under greenhouse conditions in low N Limburgerhof soil in plastic pots (500 ml) and watered from above as required (a constant weight was maintained here). A few days after emergence the plants were thinned out to 5 plants per pot.
(§2) In four pots in each case aqueous active compound solutions of one concentration of 2.3.1.3 were applied by watering. Four pots remained untreated.
3 weeks after treatment the following results were obtained: […]

[3] = test system: Wheat (Ralle); experiment: Promotion of shoot growth of wheat, greenhouse; assay type: in vivo; details: applied by watering 10 days after sowing; 3 weeks after treatment
Experimental: as §1
(§3) Wheat (Ralle) and rape (Petranova) plants were cultured under greenhouse conditions in low N Limburgerhof soil in plastic pots (500 ml) and watered from above as required. The water content of the soil here was about 80% of the maximum water capacity. A few days after emergence the plants were thinned out to 40 plants per pot.
(§4) 10 days after sowing aqueous preparations of 2.3.1.3 were applied by watering to 8 pots per test series in each case. 16 pots in each case remained untreated. 3 weeks after treatment the fresh shoot weight of the plants was determined.

[4] = test system: Peas (Kleine Rheinländerin); experiment: Peas test 2b: biomass and root nodules, greenhouse; assay type: in vivo, Pisum sativum; details: 12 days after treatment; for Dry matter (shoot + root): control 2.55; for Nodules: control 20
Experimental: as §1
b) Peas (Kleine Rheinländerin) were cultivated under greenhouse conditions in low N Limburgerhof soil in plastic pots (500 ml) and watered from above as required (constant weight). A few days after emergence the plants were thinned out to 5 plants per pot.
as §2
12 days after treatment the following results were obtained: […]

[5] = test system: Lucerne plants (Maricopa); experiment: Lucerne: root nodules and shoot biomass, greenhouse; assay type: in vivo, Medicago sativa; details: 25 days after treatment; for Root nodules: untreated 10.5; for Dry matter shoot: untreated 180
Experimental: as §1
Lucerne plants (Maricopa) were cultivated under greenhouse conditions in low N, sandy loam soil in plastic pots (750 ml) and watered from above as required. A few days after emergence the plants were thinned out to 3 plants per pot.
In 5 pots in each case 25 ml of an aqueous preparation of one concentration of 2.3.1.3 were applied by watering. 5 pots remained untreated.
25 days after treatment the following results were obtained: […]

[6] = test system: Soybeans of the variety Delta Pine 147; experiment: Field test: seed yield in soybeans; assay type: in vivo, Glycine max; details: untreated = 100 (29.9 dt/ha)
Experimental: The tests a) and b) were carried out under conditions like those in practice in 1993 on the field test site of BASF Corporation in Holly Springs, N.C., USA. This location is distinguished by a medium-heavy soil (sandy loam).
Soybeans of the variety Delta Pine 147 were used. Treatment was carried out to the following stages of development: 11 (1st trefoil formed), 13 (3rd trefoil formed) and 14 (5th trefoil formed). For treatment, the soil between the rows was sprayed with an aqueous preparation of the active compound 2.3.1.3. Immediately after the application, the active compound was washed into the soil by spray irrigation with 20 mm of water. The spray irrigation was also used to wash off active compound which had possibly reached the leaves.
Harvesting of the plants at full maturity gave the following results: […]

[7] = test system: rape (Petranova); experiment: Promotion of shoot growth of rape, greenhouse; assay type: in vivo; details: applied by watering 10 days after sowing; 3 weeks after treatment
Experimental: as §1, §3, §4

[8] = 10 g/ha of a.s., treated 20 days after emergence
[9] = 10 g/ha of a.s., treated 27 days after emergence
[10] = 10 g/ha of a.s., treated 34 days after emergence
[11] = 100 g/ha of a.s., treated 20 days after emergence
[12] = 100 g/ha of a.s., treated 27 days after emergence
[13] = 100 g/ha of a.s., treated 34 days after emergence
[14] = 1000 g/ha of a.s., treated 20 days after emergence
[15] = 1000 g/ha of a.s., treated 27 days after emergence
[16] = 1000 g/ha of a.s., treated 34 days after emergence

COC(=O)COC(=O)CON=C(C)C [active compound 2.3.1.3]
Seeds of the highest quality level [1, 8]: 124% | Yield of groundnuts [1, 8]: 108% | Seeds of the highest quality level [1, 9]: 121% | Yield of groundnuts [1, 9]: 109% | Seeds of the highest quality level [1, 10]: 113% | Yield of groundnuts [1, 10]: 124% | Seeds of the highest quality level [1, 11]: 95% | Yield of groundnuts [1, 11]: 121% | Seeds of the highest quality level [1, 12]: 113% | Yield of groundnuts [1, 12]: 104% | Seeds of the highest quality level [1, 13]: 84% | Yield of groundnuts [1, 13]: 121% | Seeds of the highest quality level [1, 14]: 103% | Yield of groundnuts [1, 14]: 113% | Seeds of the highest quality level [1, 15]: 113% | Yield of groundnuts [1, 15]: 120% | Seeds of the highest quality level [1, 16]: 108% | Yield of groundnuts [1, 16]: 113% | Dry matter (shoot + root) ([2]; 0.03 mg/pot): 3.2 g/pot | Nodules ([2]; 0.03 mg/pot): 28 number/pot | Total N (total nitrogen in shoot + root) ([2]; 0.03 mg/pot): 75.0 mg/pot | Dry matter (shoot + root) ([2]; 0.30 mg/pot): 4.0 g/pot | Nodules ([2]; 0.30 mg/pot): 127 number/pot | Total N (total nitrogen in shoot + root) ([2]; 0.30 mg/pot): 120.5 mg/pot | Dry matter (shoot + root) ([2]; 3.00 mg/pot): 3.1 g/pot | Nodules ([2]; 3.00 mg/pot): 99 number/pot | Total N (total nitrogen in shoot + root) ([2]; 3.00 mg/pot): 109.5 mg/pot | shoot growth (fresh shoot weight) [3]: shoot growth was promoted in nearly all cases | Dry matter (shoot + root) ([4]; 0.001 mg/pot): 2.65 g/pot | Nodules ([4]; 0.001 mg/pot): 31 number/pot | Dry matter (shoot + root) ([4]; 0.003 mg/pot): 3.07 g/pot | Nodules ([4]; 0.003 mg/pot): 68 number/pot | Dry matter (shoot + root) ([4]; 0.010 mg/pot): 3.00 g/pot | Nodules ([4]; 0.010 mg/pot): 66 number/pot | Dry matter (shoot + root) ([4]; 0.030 mg/pot (insect attack)): 2.32 g/pot | Nodules ([4]; 0.030 mg/pot (insect attack)): 30 number/pot | Dry matter (shoot + root) ([4]; 0.100 mg/pot): 2.52 g/pot | Nodules ([4]; 0.100 mg/pot): 59 number/pot | Dry matter (shoot + root) ([4]; 0.300 mg/pot): 3.13 g/pot | Nodules ([4]; 0.300 mg/pot): 76 number/pot | Root nodules ([5]; 30 g of a.s./ha): 10.7 number/plant | Dry matter shoot ([5]; 30 g of a.s./ha): 300 mg/plant | Root nodules ([5]; 300 g of a.s./ha): 10.3 number/plant | Dry matter shoot ([5]; 300 g of a.s./ha): 240 mg/plant | Bean yield ([6]; 10 g/ha of a.s., growth stage 11 during treatment): 104% | Bean yield ([6]; 10 g/ha of a.s., growth stage 13 during treatment): 116% | Bean yield ([6]; 10 g/ha of a.s., growth stage 14 during treatment): 110% | Bean yield ([6]; 100 g/ha of a.s., growth stage 11 during treatment): 122% | Bean yield ([6]; 100 g/ha of a.s., growth stage 13 during treatment): 117% | Bean yield ([6]; 100 g/ha of a.s., growth stage 14 during treatment): 112% | Bean yield ([6]; 1000 g/ha of a.s., growth stage 11 during treatment): 110% | Bean yield ([6]; 1000 g/ha of a.s., growth stage 13 during treatment): 122% | Bean yield ([6]; 1000 g/ha of a.s., growth stage 14 during treatment): 108% | shoot growth (fresh shoot weight) [7]: shoot growth was promoted in nearly all cases

From patent US6369003B1, “Process and composition for soil improvement by reducing microbially formed ethylene in the soil” (BASF Aktiengesellschaft, priority 1994, dated 2002)
